Where “and” joins values, the source holds several entries; their conditions need not be identical. Equal values may be shown once. Toxic doses and inconclusive results are not listed. How the source made its calls: active means survival T/C of 150% or more; inactive means T/C below 125% in these data.
Tested on: P388 leukemia ip, CD2F1 mice, survival T/C
Assay: NCI In Vivo Anticancer Drug Screen. Data for tumor model P388 Leukemia (intraperitoneal) in CD2F1 (CDF1) mice
Details: endpoint: median survival time, higher = longer survival
In short: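 Mice carrying the transplanted tumor received test compound or vehicle. Survival was recorded in each group, and the value is the treated-group measurement divided by that of the vehicle-treated control group.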

[1] = dose: 50.0 mg/kg/injection, schedule: Q01DX009 (ip), vehicle: saline with Tween-80
[2] = dose: 100.0 mg/kg/injection, schedule: Q01DX009 (ip), vehicle: saline with Tween-80
[3] = dose: 200.0 mg/kg/injection, schedule: Q01DX009 (ip), vehicle: saline with Tween-80
[4] = dose: 50.0 mg/kg/injection, schedule: Q01DX005 (ip), vehicle: saline with Tween-80
[5] = dose: 100.0 mg/kg/injection, schedule: Q01DX005 (ip), vehicle: saline with Tween-80
[6] = dose: 200.0 mg/kg/injection, schedule: Q01DX005 (ip), vehicle: saline with Tween-80
[7] = dose: 25.0 mg/kg/injection, schedule: Q01DX009 (ip), vehicle: Klucel (hydroxypropylcellulose) (HPC)
[8] = dose: 50.0 mg/kg/injection, schedule: Q01DX009 (ip), vehicle: Klucel (hydroxypropylcellulose) (HPC)
[9] = dose: 100.0 mg/kg/injection, schedule: Q01DX009 (ip), vehicle: Klucel (hydroxypropylcellulose) (HPC)
[10] = dose: 50.0 mg/kg/injection, schedule: Q01DX005 (ip), vehicle: Klucel (hydroxypropylcellulose) (HPC)
[11] = dose: 100.0 mg/kg/injection, schedule: Q01DX005 (ip), vehicle: Klucel (hydroxypropylcellulose) (HPC)
[12] = dose: 6.25 mg/kg/injection, schedule: Q01DX009 (ip), vehicle: Klucel (hydroxypropylcellulose) (HPC)
[13] = dose: 12.5 mg/kg/injection, schedule: Q01DX009 (ip), vehicle: Klucel (hydroxypropylcellulose) (HPC)
[14] = dose: 200.0 mg/kg/injection, schedule: Q01DX005 (ip), vehicle: Klucel (hydroxypropylcellulose) (HPC)
[15] = dose: 50.0 mg/kg/injection, schedule: Q01DX009 (ip), vehicle: saline

Measured: T/C

COc1cccc2c1[n+]([O-])c1cccc(O)c1[n+]2[O-]
inactive: dose: 1.56 mg/kg/injection, schedule: Q01DX009 (ip), vehicle: saline with Tween-80 112 % of control | dose: 3.12 mg/kg/injection, schedule: Q01DX009 (ip), vehicle: saline with Tween-80 109 % of control | dose: 6.25 mg/kg/injection, schedule: Q01DX009 (ip), vehicle: saline with Tween-80 114 % of control | dose: 12.5 mg/kg/injection, schedule: Q01DX009 (ip), vehicle: saline with Tween-80 124 % of control

O=P(Oc1ccccc1)(Oc1ccccc1)C(O)C(Cl)(Cl)Cl (centres undefined)
inactive: [1] 107 % of control | [2] 100 % of control and 117 % of control | [3] 103 % of control

COC(=O)C1(c2ccccc2)N=NN=C1N(C)C (centres undefined)
inactive: [4] 98 % of control | [5] 106 % of control | [6] 110 % of control

CC(=O)Nc1c(C)cccc1C
inactive: [7] 93 % of control | [8] 100 % of control | [9] 97 % of control | dose: 200.0 mg/kg/injection, schedule: Q01DX009 (ip), vehicle: Klucel (hydroxypropylcellulose) (HPC) 103 % of control

CC(=O)OC1SCC2OC(=O)OC21 (centres undefined)
inactive: [1] 108 % of control | [2] 95 % of control | [3] 96 % of control

CCCCC1SCC(=O)N1c1nncs1 (centres undefined)
inactive: dose: 60.0 mg/kg/injection, schedule: Q01DX005 (ip), vehicle: saline with Tween-80 104 % of control | dose: 120.0 mg/kg/injection, schedule: Q01DX005 (ip), vehicle: saline with Tween-80 98 % of control | dose: 240.0 mg/kg/injection, schedule: Q01DX005 (ip), vehicle: saline with Tween-80 103 % of control

O=C1C=CC(=O)C2=C1C1c3ccccc3C2c2ccccc21
inactive: [10] 101 % of control | [11] 110 % of control

c1ccc2nc3c(nc2c1)[nH]c1ccccc13
inactive: [12] 101 % of control | [13] 95 % of control | [7] 103 % of control | [8] 95 % of control

NP1(N)=NP(N)(N)=NP(N)(N)=NP(N)(N)=N1
inactive: [10] 96 % of control | [11] 96 % of control | [14] 99 % of control

CN=C1c2ccccc2C(=O)c2c1c(O)n(C)c2O
inactive: [10] 97 % of control | [11] 97 % of control | [14] 106 % of control

CCOC(=O)C(CC)Oc1ccc(Cl)cc1 (centres undefined)
inactive: [8] 102 % of control | [9] 89 % of control

O=C(CCCC(=O)Nc1ccc2c(=O)c3ccccc3[nH]c2c1)Nc1ccc2c(=O)c3ccccc3[nH]c2c1
inactive: [4] 98 % of control | [5] 104 % of control | [6] 100 % of control

Clc1ccccc1N/N=c1\nnc2c(Cl)cccc2s1
inactive: dose: 50.0 mg/kg/injection, schedule: Q04DX002 (ip), vehicle: saline with Tween-80 95 % of control | dose: 100.0 mg/kg/injection, schedule: Q04DX002 (ip), vehicle: saline with Tween-80 94 % of control | dose: 200.0 mg/kg/injection, schedule: Q04DX002 (ip), vehicle: saline with Tween-80 91 % of control

COc1ccc2c(c1)CC(=CO)CC2=O.COc1ccc2c(c1)CC/C(=C/O)C2=O.[Cu]
inactive: dose: 37.5 mg/kg/injection, schedule: Q01DX009 (ip), vehicle: saline with Tween-80 100 % of control | dose: 75.0 mg/kg/injection, schedule: Q01DX009 (ip), vehicle: saline with Tween-80 90 % of control | [2] 95 % of control | dose: 150.0 mg/kg/injection, schedule: Q01DX009 (ip), vehicle: saline with Tween-80 109 % of control | [3] 123 % of control | dose: 200.0 mg/kg/injection, schedule: Q04DX003 (ip), vehicle: saline with Tween-80 91 % of control | dose: 400.0 mg/kg/injection, schedule: Q04DX003 (ip), vehicle: saline with Tween-80 91 % of control

c1ccc(-n2ccnc2C2C3CCN2CC3)cc1 (centres undefined)
inactive: dose: 12.5 mg/kg/injection, schedule: Q01DX009 (ip), vehicle: saline 104 % of control | dose: 25.0 mg/kg/injection, schedule: Q01DX009 (ip), vehicle: saline 104 % of control | [15] 111 % of control and 97 % of control

COc1cc2c(cc1OC)C(NC=O)CCC2 (centres undefined)
inactive: dose: 25.0 mg/kg/injection, schedule: Q01DX009 (ip), vehicle: other 101 % of control | dose: 50.0 mg/kg/injection, schedule: Q01DX009 (ip), vehicle: other 104 % of control | dose: 100.0 mg/kg/injection, schedule: Q01DX009 (ip), vehicle: other 100 % of control | dose: 200.0 mg/kg/injection, schedule: Q01DX009 (ip), vehicle: other 101 % of control | dose: 400.0 mg/kg/injection, schedule: Q01DX009 (ip), vehicle: other 86 % of control

c1ccc(CN2CCC3(CC2)CO3)cc1
inactive: dose: 100.0 mg/kg/injection, schedule: Q01DX001 (ip), vehicle: Klucel (hydroxypropylcellulose) (HPC) 106 % of control | dose: 200.0 mg/kg/injection, schedule: Q01DX001 (ip), vehicle: Klucel (hydroxypropylcellulose) (HPC) 100 % of control

C/C(=N/OC1=CC(=O)CC(C)(C)C1)c1ccccc1
inactive: [4] 104 % of control | [5] 104 % of control | [6] 99 % of control

Brc1ccc(-c2csc(Nc3nc(-c4ccc(Br)cc4)cs3)n2)cc1
inactive: [2] 95 % of control | [3] 100 % of control | dose: 400.0 mg/kg/injection, schedule: Q01DX009 (ip), vehicle: saline with Tween-80 104 % of control

N#CC(C#N)=C/C=C/c1cccc([N+](=O)[O-])c1
inactive: dose: 3.12 mg/kg/injection, schedule: Q01DX009 (ip), vehicle: Klucel (hydroxypropylcellulose) (HPC) 114 % of control | [12] 123 % of control | dose: 8.2 mg/kg/injection, schedule: Q01DX009 (ip), vehicle: Klucel (hydroxypropylcellulose) (HPC) 118 % of control | [7] 100 % of control

CC(=O)N=C1C=C(NC(C)=O)C(=O)c2ccccc21
inactive: [12] 103 % of control | [13] 99 % of control and 100 % of control and 116 % of control | [7] 100 % of control and 105 % of control and 124 % of control | [8] 112 % of control

CN(CCNCC1CCCN1C)Cc1cccc(Cl)c1 (centres undefined)
inactive: dose: 50.0 mg/kg/injection, schedule: Q01DX005 (ip), vehicle: saline 108 % of control | dose: 100.0 mg/kg/injection, schedule: Q01DX005 (ip), vehicle: saline 101 % of control | dose: 200.0 mg/kg/injection, schedule: Q01DX005 (ip), vehicle: saline 106 % of control

CC(NNC(=S)N1CCCC1)c1cc2ccccc2cn1 (centres undefined)
inactive: dose: 25.0 mg/kg/injection, schedule: Q01DX005 (ip), vehicle: saline with Tween-80 104 % of control and 108 % of control | [4] 110 % of control and 123 % of control | [5] 104 % of control

CN1CC(C(=O)NC2(C)OC3(O)C4CCCN4C(=O)C(Cc4ccccc4)N3C2=O)C=C2c3cccc4[nH]cc(c34)CC21 (centres undefined)
inactive: [10] 91 % of control | [11] 87 % of control | [14] 102 % of control

C=CCN(C#N)CC=C
inactive: [15] 96 % of control

C=CCn1c(=O)oc2ccc(Cl)cc21
inactive: dose: 10.0 mg/kg/injection, schedule: Q01DX009 (ip), vehicle: saline with Tween-80 104 % of control | dose: 20.0 mg/kg/injection, schedule: Q01DX009 (ip), vehicle: saline with Tween-80 104 % of control | dose: 40.0 mg/kg/injection, schedule: Q01DX009 (ip), vehicle: saline with Tween-80 104 % of control
